Where “and” joins values, the source holds several entries; their conditions need not be identical. Equal values may be shown once.
Tests used:
[1] = tested on: LoVo human colon carcinoma cells; experiment: Viability assay (LDH release), LoVo; assay type: cell-based
Experimental: (§1) The anticancer activities of all the synthesized compounds were assessed against two human colon carcinoma cell lines, namely LoVo and HCT-116 (Table 6), via the determination of the mean percents of the viable cancerous cells remaining after being incubated with 200 µg/mL of each test compound for 48 h using LDH assay.
(§2) The samples were diluted in Dulbecco’s Modified Eagle’s Medium, consisting of 10% fetal bovine serum (FBS), added to cells grown and cultured for 24 h in a 5% CO2-humidified incubator at 37 °C. Thereafter, the activity of lactate dehydrogenase released from damaged cells was determined in the collected supernatant aliquots using an ELISA end-point assay (Benchmark Plus, Bio-Rad, CA, USA); 0.1% Triton X-100 in the assay medium and the assay medium only were used as the positive and negative controls, respectively. Cell viability was expressed as a relative percentage of the OD values (at 550 nm) for compound-treated cells (final concentration of 200 µg /mL) and the negative control, which was shown as the mean % ± SD (n = 3). The results of the viability assays for the potential cytotoxic candidates were compared with the % of viable human umbilical vein endothelial cells (HUVEC) at the same concentration. These cells were grown in Dulbecco’s Modified Eagle’s Medium (PAN-Biotech; Barcelona, Spain) containing 10% FBS (Sigma Aldrich; St. Quentin-Fallavier, France), 2 mM Glutamine (Sigma Aldrich), 100 units/mL penicillin and […] streptomycin (Life Technologies; Paisley, UK).

[2] = tested on: HCT-116 human colon carcinoma cells; experiment: Viability assay (LDH release), HCT-116; assay type: cell-based
Experimental: as §1, §2

[3] = Viability assay (LDH release), HUVEC; assay type: cell-based, human; details: human, human umbilical vein endothelial cells (HUVEC); 200 µg/mL; read-out: Mean % of viable cells ± SD, HUVEC
Experimental: as §2

[4] = tested on: non-tumoral human umbilical vein endothelial cells (HUVEC); experiment: Viability assay (LDH release), HUVEC; assay type: cell-based; details: Homo sapiens, HUVEC
Experimental: as §2

[5] = DPPH radical scavenging assay; assay type: biochemical
Source text: In principle, the antioxidant power of a compound in this assay is correlated to its tendency to reduce the stable, purple-colored DPPH radical through a hydrogen atom transfer (HAT) mechanism and/or a single electron transfer mechanism, thereby converting it to the yellow-colored 2,2-diphenyl-1-picrylhydrazine, whereby this reduction is accompanied by a depletion in the amount of the initial DPPH radicals and a change in the absorbance of the test solution accordingly, which can be detected relative to the blank solution at λ = 517 nm.
The antioxidant potencies of all synthesized compounds were investigated using a 1,1 diphenyl-2-picrylhydrazyl (DPPH) radical scavenging assay according to the protocol described by Bersuder et al.. In brief, a 0.5 mL volume of DPPH ethanolic solution was mixed with an equal volume of each sample concentration (i.e., the test compound or butylated hydroxytoluene, BHT, which was used as the reference antioxidant in the positive control experiment), shaken strongly, and incubated at room temperature for 1 h in darkness. The absorbance of the residual DPPH radicals was measured at λ = 519 nm and compared to the negative control (without the test compound or reference antioxidant). The DPPH radical scavenging power was calculated using the following formula: scavenging efficiency (%) = (1 − Acompound/AControl) × 100, where Acompound and Acontrol are the absorbance of the tested compound and the negative control, respectively. […] Additionally, the ± SD values were calculated from three independent triplicate measurements.

COX-2 = target: T1, COX-2 (Homo sapiens, UniProt P35354); experiment: COX-2 inhibitory screening assay (Cayman kit); assay type: biochemical
T1 construct: purchased Cayman Chemical Company 701080
T1 sequence (P35354 18-604): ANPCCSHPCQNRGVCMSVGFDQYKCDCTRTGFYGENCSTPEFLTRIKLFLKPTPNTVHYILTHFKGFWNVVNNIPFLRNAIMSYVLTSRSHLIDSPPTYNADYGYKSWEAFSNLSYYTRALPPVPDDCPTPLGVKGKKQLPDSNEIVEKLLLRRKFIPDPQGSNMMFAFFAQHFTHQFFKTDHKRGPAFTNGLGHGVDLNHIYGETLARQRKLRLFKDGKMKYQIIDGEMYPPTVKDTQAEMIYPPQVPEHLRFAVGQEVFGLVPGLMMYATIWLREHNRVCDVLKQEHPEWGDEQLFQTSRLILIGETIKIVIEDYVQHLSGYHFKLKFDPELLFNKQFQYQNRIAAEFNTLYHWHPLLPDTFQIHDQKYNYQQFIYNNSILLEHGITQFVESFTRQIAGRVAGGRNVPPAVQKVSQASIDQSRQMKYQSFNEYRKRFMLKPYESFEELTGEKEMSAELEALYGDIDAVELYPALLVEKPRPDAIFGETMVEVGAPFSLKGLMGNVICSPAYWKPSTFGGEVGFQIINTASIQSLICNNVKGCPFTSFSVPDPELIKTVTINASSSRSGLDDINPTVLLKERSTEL
Experimental: Each compound of the two series, 3a–h and 5a–h, was resuspended in 100% DMSO at a final concentration of 10 mg/mL. […] Briefly, 10 µL of the tested compound was added to a mixture of the reaction buffer solution (160 µL of 0.1 M Tris-HCl, pH 8.0, in the presence of 2 mM phenol and 5 mM EDTA), COX-2 (10 µL) and heme (10 µL). After a 10 min incubation at 37 °C, the reaction was started by adding arachidonic acid (10 µL), rapidly mixed and kept at 37 °C for 2 min. PGF2α generated via PGH2 reduction with stannous chloride (30 µL) was incubated at room temperature for 5 min. The PGF2α amount was then determined via an enzyme immunoassay. Prior to incubation with the COX-2 reaction (at room temperature 18 h), the 96-well plate was previously coated with a mouse anti-rabbit monoclonal antibody. Unbound reagents were removed by washing the plate followed by adding Ellman’s reagent to the well. The reaction product displaying a distinct yellow color was measured at 410 nm using a UV microplate reader. The % inhibition was calculated by comparing the PGF2α produced in the compound-treated samples with a control sample, using the following equation: % inhibition is equal to [([PGF2α]control − [PGF2α]sample) /[PGF2α ]control ] × 100. […] The COX-2 inhibitory efficiency was expressed as an inhibition percentage, which was determined via a comparison with the negative control experiments.

[6] = target: purified recombinant human LDHA protein (Homo sapiens, UniProt P00338); experiment: Lactate dehydrogenase A (LDHA) inhibitory assay; assay type: biochemical
Experimental: The LDHA inhibitory effectiveness was investigated by measuring the amounts of consumed NADH [73]. […] The fluorescence of NADH, which has an excitation wavelength of 340 nm and an emission wavelength of 460 nm, was detected using a spectrofluorometer. […] The LDHA inhibitory efficiency was expressed as an inhibition percentage, which was determined via a comparison with the negative control experiments.

α-amylase = experiment: In vitro α-amylase (AA) inhibition assay; details: mean ± SD of three replicates
Experimental: Then, 180 µL of Labtest (the amylase substrate) was added and the samples were incubated for 8 min, followed by measuring the first reaction at 620 nm to obtain (X1). Afterwards, the reaction mixture was incubated for an additional 5 min at 37 °C; then, the second reaction was measured to obtain the final reading (X2). […] The results were expressed as IC50 µg/mL (as well as µM) and were determined from the standard curves.

[7] = target: α-glucosidase enzyme from Saccharomyces Cerevisiae (Saccharomyces cerevisiae, UniProt P53341); experiment: In vitro α-glucosidase (AG) inhibitory activity; details: mean ± SD of three replicates
α-glucosidase enzyme from Saccharomyces Cerevisiae, sequence (P53341 whole entry): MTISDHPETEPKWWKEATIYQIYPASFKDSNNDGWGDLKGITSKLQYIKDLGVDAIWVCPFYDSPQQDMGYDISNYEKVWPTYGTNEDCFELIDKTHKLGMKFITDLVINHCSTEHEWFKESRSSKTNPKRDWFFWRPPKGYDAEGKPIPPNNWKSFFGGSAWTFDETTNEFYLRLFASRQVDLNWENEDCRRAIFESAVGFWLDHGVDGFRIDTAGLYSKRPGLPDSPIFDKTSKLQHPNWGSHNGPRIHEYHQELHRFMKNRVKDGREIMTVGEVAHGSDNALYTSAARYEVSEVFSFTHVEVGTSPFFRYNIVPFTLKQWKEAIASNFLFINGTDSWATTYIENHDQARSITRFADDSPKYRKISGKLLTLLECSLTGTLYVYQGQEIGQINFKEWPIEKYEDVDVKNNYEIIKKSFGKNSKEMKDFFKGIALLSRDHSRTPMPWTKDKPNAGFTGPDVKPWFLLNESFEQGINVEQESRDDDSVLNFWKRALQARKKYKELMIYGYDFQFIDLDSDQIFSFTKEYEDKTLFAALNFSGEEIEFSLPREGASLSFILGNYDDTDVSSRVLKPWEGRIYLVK
Experimental: Then, the reaction was allowed to start by adding 150 µL of the color reagent 4-NPGP and the resulting mixture was incubated for additional 15 min at 37 °C. Collectively, the colorimetric assay medium contained 2U of α-glucosidase, 5 mM of 4-NPGP and 10 mM of the potassium phosphate buffer with a pH of 6.9. […] The inhibitory efficiency of each compound was expressed as IC50 µg/mL (as well as µM), which was calculated from the corresponding calibration curve.

[8] = % inhibition at 0.200 mg/mL divided by % inhibition at 0.100 mg/mL

With `O=c1[nH]cc(F)c(=O)[nH]1` [Compound 5-FU, 5-Fluorouracil, reference compound] the “Selectivity index (IC50 normal cell / IC50 cell line), LoVo” value ([1]; HUVEC vs LoVo) was 102.577, the IC50 ([1]; Homo sapiens, LoVo, from concentration–response curves) was 2.91 µg/mL and 22.4 µM and the “Selectivity index (IC50 normal cell / IC50 cell line), HCT-116” value ([2]; HUVEC vs HCT-116) was 25.190. The IC50 ([2]; Homo sapiens, HCT-116, from concentration–response curves) was 11.8 µg/mL and 91.1 µM, the viability at 200 µg/mL [3] was 57.3 ± 2.52% and the IC50 [4] was 298 µg/mL and 2.29 mM.

In the case of `O=c1c2cc(Cl)ccc2nc(SCc2ccc(Cl)cc2)n1-c1ccc(C(F)(F)F)cc1` [Compound 5d, 2-(4-Chloro-benzylsulfanyl)-6-chloro-3-(4-trifluoromethyl-phenyl)-3H-quinazolin-4-one], the “Mean IC50 for scavenging initial DPPH radicals” value ([5]; mean ± SD of three replicates) is reported as 200 ± 28 µg/mL, the IC50 ([5]; mean ± SD, converted from mg/mL, read-out: Mean IC50 for scavenging initial DPPH radicals (converted)) is reported as 416 µM and the “Increase in COX-2 inhibitory efficiency by duplicating the concentration” value (COX-2; [8]) is reported as 1.68 fold. For the same molecule, the “COX-2 mean % inhibition ± SD” value (COX-2; at 0.100 mg/mL) was 26.300 ± 1.839%, the “COX-2 mean % inhibition ± SD” value (COX-2; at 0.200 mg/mL) was 44.050 ± 1.344% and the “Fold change of LDHA inhibition as compared to 0.1 mg/mL” value [6, 8] was 1.47 fold. For the same molecule, the “LDHA mean % inhibition ± SD” value ([6]; at 0.1 mg/mL) was 13.850 ± 2.051%, the “LDHA mean % inhibition ± SD” value ([6]; at 0.2 mg/mL) was 20.400 ± 1.980% and the “Mean % of viable cells ± SD, LoVo” value ([1]; 200 µg/mL, 48 h) was 76.000 ± 1.732%. The “Mean % of viable cells ± SD, HCT-116” value ([2]; 200 µg/mL, 48 h) was 86.667 ± 1.528%, the “Mean IC50 α-Amylase (AA)” value (α-amylase) was 181.667 ± 5.508 µg/mL and the IC50 (α-amylase; read-out: Mean IC50 α-Amylase (AA)) was 377 µM. The “Mean IC50 α-Glucosidase (AG)” value [7] was 38.100 ± 0.656 µg/mL and the IC50 ([7]; read-out: Mean IC50 α-Glucosidase (AG)) was 79.2 µM.
